Results taken from ChEMBL document CHEMBL1142442, “Synthesis of chimeric tetrapeptide-linked cholic acid derivatives: impending synergistic agents” (Bioorg Med Chem Lett, 2008).
≈ marks a conversion by molar mass, not a printed value. Where a SMILES comes first, the peptide text is derived from it. The star is where a group is joined. Boc = CC(C)(C)OC(=O)*; OBn = c1ccc(CO*)cc1

Columns and labels:
Escherichia coli [1] = assay: Antibacterial activity at Escherichia coli assessed as concentration required to lower the MIC of erythromycin from 64 to 1 ug/mL after 24 hrs; type: functional
Staphylococcus aureus = assay: Antibacterial activity at Staphylococcus aureus; type: functional
Escherichia coli [2] = assay: Antibacterial activity at Escherichia coli; type: functional
Candida albicans [3] = assay: Antifungal activity at Candida albicans assessed as concentration required to lower the MIC of fluconazole from 32 to 1 ug/mL after 48 hrs; type: functional
MCF7 [4] = assay: Antiproliferative activity against human MCF7 cells at upto 80 uM by MTT assay; type: functional, cell-based
Cryptococcus neoformans = assay: Antifungal activity at Cryptococcus neoformans; type: functional
MCF7 [5] = assay: Antiproliferative activity against human MCF7 cells by MTT assay; type: functional, cell-based
Fusarium oxysporum = assay: Antifungal activity at Fusarium oxysporum; type: functional
HEK293 [6] = assay: Antiproliferative activity against HEK293 cells by MTT assay; type: cell-based; conditions: Homo sapiens
Candida albicans [7] = assay: Antifungal activity at Candida albicans; type: functional
Yarrowia lipolytica = assay: Antifungal activity at Yarrowia lipolytica; type: functional
HEK293 [8] = assay: Antiproliferative activity against HEK293 cells at upto 80 uM by MTT assay; type: cell-based; conditions: human
Benjaminiella poitrasii = assay: Antifungal activity at Benjaminiella poitrasii; type: functional

| Compound | MIC (Escherichia coli [1]) | MIC (Staphylococcus aureus) | MIC (Escherichia coli [2]) | MIC (Candida albicans [3]) | Activity (MCF7 [4]) | MIC (Cryptococcus neoformans) | IC50 (MCF7 [5]) | MIC (Fusarium oxysporum) | IC50 (HEK293 [6]) | MIC (Candida albicans [7]) | MIC (Yarrowia lipolytica) | Activity (HEK293 [8]) | MIC (Benjaminiella poitrasii) |
| --- | --- | --- | --- | --- | --- | --- | --- | --- | --- | --- | --- | --- | --- |
| CC(=O)OCCC[C@@H](C)[C@H]1CC[C@H]2[C@@H]3[C@H](OC(C)=O)C[C@@H]4C[C@@H](NC(=O)CNC(=O)CNC(=O)CNC(=O)CN)CC[C@]4(C)[C@H]3C[C@H](O)[C@]12C | 8 µg/mL | 64 µg/mL (≈ 90.7 µM) | > 128 µg/mL | 6 µg/mL | Non-toxic | > 128 µg/mL | 150 µM | 32 µg/mL (≈ 45.3 µM) | 800 µM | 64 µg/mL (≈ 90.7 µM) | > 128 µg/mL | Non-toxic | 16 µg/mL (≈ 22.7 µM) |
| C[C@H](CCC(=O)O)[C@H]1CC[C@H]2[C@@H]3[C@H](O)C[C@@H]4C[C@H](O)CC[C@]4(C)[C@H]3C[C@H](O)[C@]12C [CHOLIC ACID] | 64 µg/mL | > 128 µg/mL | > 128 µg/mL | 64 µg/mL |  | > 128 µg/mL | 50 µM | > 128 µg/mL | > 1000 µM | > 128 µg/mL | > 128 µg/mL |  | 128 µg/mL (≈ 313 µM) |
| COC(=O)CC[C@@H](C)[C@H]1CC[C@H]2[C@@H]3[C@H](O)C[C@@H]4C[C@@H](NC(=O)CNC(=O)CNC(=O)CNC(=O)CNC(=O)OC(C)(C)C)CC[C@]4(C)[C@H]3C[C@H](O)[C@]12C | 24 µg/mL | 32 µg/mL (≈ 42.7 µM) | 96 µg/mL (≈ 128 µM) | 8 µg/mL | Non-toxic | > 128 µg/mL | 300 µM | 64 µg/mL (≈ 85.3 µM) | 600 µM | 16 µg/mL (≈ 21.3 µM) | > 128 µg/mL | Non-toxic | 64 µg/mL (≈ 85.3 µM) |
| CC(C)(C)OC(=O)NCCC(=O)NCCC(=O)NCCC(=O)NCCC(=O)O | > 128 µg/mL |  | 64 µg/mL (≈ 159 µM) | 64 µg/mL |  |  |  |  |  | > 128 µg/mL |  |  |  |
| COC(=O)CC[C@@H](C)[C@H]1CC[C@H]2[C@@H]3[C@H](O)C[C@@H]4C[C@@H](NC(=O)CCNC(=O)CCNC(=O)CCNC(=O)CCN)CC[C@]4(C)[C@H]3C[C@H](O)[C@]12C | 8 µg/mL | 64 µg/mL (≈ 90.7 µM) | 96 µg/mL (≈ 136 µM) | 3 µg/mL | Non-toxic | > 128 µg/mL | 600 µM | 32 µg/mL (≈ 45.3 µM) | 700 µM | 128 µg/mL (≈ 181 µM) | > 128 µg/mL | Non-toxic | 24 µg/mL (≈ 34 µM) |
| C[C@@H]1[C@H](O)[C@@H](C)/C=C/C=C/C=C/C=C/C=C/C=C/C=C/[C@H](O[C@@H]2O[C@H](C)[C@@H](O)[C@H](N)[C@@H]2O)C[C@@H]2O[C@](O)(C[C@@H](O)C[C@@H](O)[C@H](O)CC[C@@H](O)C[C@@H](O)CC(=O)O[C@H]1C)C[C@H](O)[C@H]2C(=O)O [AMPHOTERICIN B] |  |  |  |  |  | 16 µg/mL (≈ 17.3 µM) |  | 16 µg/mL (≈ 17.3 µM) |  | 2 µg/mL (≈ 2.16 µM) | 16 µg/mL (≈ 17.3 µM) |  | 16 µg/mL (≈ 17.3 µM) |
| CC(CCC(=O)O)C1CCC2C3C(O)CC4CC(NC(=O)CCNC(=O)CCNC(=O)CCNC(=O)CCNC(=O)OC(C)(C)C)CCC4(C)C3CC(O)C12C (configuration not stated) | 16 µg/mL | > 128 µg/mL | > 128 µg/mL | 12 µg/mL | Non-toxic | > 128 µg/mL | > 1000 µM | 64 µg/mL (≈ 80.8 µM) | > 1000 µM | 32 µg/mL (≈ 40.4 µM) | > 128 µg/mL | Non-toxic | 48 µg/mL (≈ 60.6 µM) |
| COC(=O)CC[C@@H](C)[C@H]1CC[C@H]2[C@@H]3[C@H](O)C[C@@H]4C[C@@H](NC(=O)CNC(=O)CNC(=O)CNC(=O)CN)CC[C@]4(C)[C@H]3C[C@H](O)[C@]12C | 12 µg/mL | 96 µg/mL (≈ 148 µM) | > 128 µg/mL | 6 µg/mL | Non-toxic | > 128 µg/mL | 500 µM | 128 µg/mL (≈ 197 µM) | 80 µM | 32 µg/mL (≈ 49.2 µM) | > 128 µg/mL | Non-toxic | 64 µg/mL (≈ 98.5 µM) |
| CC(C)(C)OC(=O)NCCC(=O)NCCC(=O)NCCC(=O)NCCC(=O)OCc1ccccc1 | 64 µg/mL |  | 128 µg/mL (≈ 260 µM) | 128 µg/mL |  |  |  |  |  | > 128 µg/mL |  |  |  |
| CC[C@H]1OC(=O)[C@H](C)[C@@H](O[C@H]2C[C@@](C)(OC)[C@@H](O)[C@H](C)O2)[C@H](C)[C@@H](O[C@@H]2O[C@H](C)C[C@H](N(C)C)[C@H]2O)[C@](C)(O)C[C@@H](C)C(=O)[C@H](C)[C@@H](O)[C@]1(C)O [ERYTHROMYCIN] |  | 32 µg/mL (≈ 43.6 µM) | 64 µg/mL (≈ 87.2 µM) |  |  |  |  |  |  |  |  |  |  |
| C[C@H](CCC(=O)O)[C@H]1CC[C@H]2[C@@H]3[C@H](O)C[C@@H]4C[C@@H](NC(=O)CCNC(=O)CCNC(=O)CCNC(=O)CCN)CC[C@]4(C)[C@H]3C[C@H](O)[C@]12C | 4 µg/mL | > 128 µg/mL | 32 µg/mL (≈ 46.2 µM) | 1 µg/mL | Non-toxic | > 128 µg/mL | 200 µM | 64 µg/mL (≈ 92.5 µM) | > 1000 µM | 32 µg/mL (≈ 46.2 µM) | > 128 µg/mL | Non-toxic | 24 µg/mL (≈ 34.7 µM) |
| CC(=O)OCCC[C@@H](C)[C@H]1CC[C@H]2[C@@H]3[C@H](OC(C)=O)C[C@@H]4C[C@@H](NC(=O)CCNC(=O)CCNC(=O)CCNC(=O)CCNC(=O)OC(C)(C)C)CC[C@]4(C)[C@H]3C[C@H](O)[C@]12C | 10 µg/mL | 32 µg/mL (≈ 37.1 µM) | > 128 µg/mL | 8 µg/mL | Non-toxic | > 128 µg/mL | 150 µM | > 128 µg/mL | 80 µM | 32 µg/mL (≈ 37.1 µM) | 96 µg/mL (≈ 111 µM) | Non-toxic | 64 µg/mL (≈ 74.2 µM) |
| C[C@H](CCCO)[C@H]1CC[C@H]2[C@@H]3[C@H](O)C[C@@H]4C[C@@H](NC(=O)CCNC(=O)CCNC(=O)CCNC(=O)CCN)CC[C@]4(C)[C@H]3C[C@H](O)[C@]12C | 8 µg/mL | > 128 µg/mL | 32 µg/mL (≈ 47.2 µM) | 6 µg/mL | Non-toxic | > 128 µg/mL | > 1000 µM | > 128 µg/mL | 800 µM | 64 µg/mL (≈ 94.4 µM) | > 128 µg/mL | Non-toxic | 64 µg/mL (≈ 94.4 µM) |
| CC(C)(C)OC(=O)NCC(=O)NCC(=O)NCC(=O)NCC(=O)OCc1ccccc1 (Boc-GGGG-OBn) | 128 µg/mL |  | 128 µg/mL (≈ 293 µM) | 128 µg/mL |  |  |  |  |  | > 128 µg/mL |  |  |  |
| CC(=O)OCCC[C@@H](C)[C@H]1CC[C@H]2[C@@H]3[C@H](OC(C)=O)C[C@@H]4C[C@@H](NC(=O)CNC(=O)CNC(=O)CNC(=O)CNC(=O)OC(C)(C)C)CC[C@]4(C)[C@H]3C[C@H](O)[C@]12C | 24 µg/mL | > 128 µg/mL | 64 µg/mL (≈ 79.4 µM) | 12 µg/mL | Non-toxic | > 128 µg/mL | 500 µM | 64 µg/mL (≈ 79.4 µM) | 200 µM | 64 µg/mL (≈ 79.4 µM) | > 128 µg/mL | Non-toxic | 32 µg/mL (≈ 39.7 µM) |
| CC(C)(C)OC(=O)NCC(=O)NCC(=O)NCC(=O)NCC(=O)O (Boc-GGGG-OH) | 128 µg/mL |  | 64 µg/mL (≈ 185 µM) | 64 µg/mL |  |  |  |  |  | > 128 µg/mL |  |  |  |
| NCC(=O)NCC(=O)NCC(=O)NCC(=O)O (H-GGGG-OH) | 64 µg/mL |  | > 128 µg/mL | > 128 µg/mL |  |  |  |  |  | 128 µg/mL (≈ 520 µM) |  |  |  |
| C[C@H](CCCO)[C@H]1CC[C@H]2[C@@H]3[C@H](O)C[C@@H]4C[C@@H](NC(=O)CCNC(=O)CCNC(=O)CCNC(=O)CCNC(=O)OC(C)(C)C)CC[C@]4(C)[C@H]3C[C@H](O)[C@]12C | 20 µg/mL | > 128 µg/mL | > 128 µg/mL | 12 µg/mL | Non-toxic | > 128 µg/mL | > 1000 µM | 64 µg/mL (≈ 82.3 µM) | 800 µM | 128 µg/mL (≈ 165 µM) | > 128 µg/mL | Non-toxic | > 128 µg/mL |
| NCCC(=O)NCCC(=O)NCCC(=O)NCCC(=O)O | > 128 µg/mL |  | 128 µg/mL (≈ 423 µM) | 128 µg/mL |  |  |  |  |  | > 128 µg/mL |  |  |  |
| OC(Cn1cncn1)(Cn1cncn1)c1ccc(F)cc1F [FLUCONAZOLE] |  |  |  |  |  | 32 µg/mL (≈ 104 µM) |  | 8 µg/mL (≈ 26.1 µM) |  | 32 µg/mL (≈ 104 µM) | 64 µg/mL (≈ 209 µM) |  | 32 µg/mL (≈ 104 µM) |
| COC(=O)CC[C@@H](C)[C@H]1CC[C@H]2[C@@H]3[C@H](O)C[C@@H]4C[C@@H](NC(=O)CCNC(=O)CCNC(=O)CCNC(=O)CCNC(=O)OC(C)(C)C)CC[C@]4(C)[C@H]3C[C@H](O)[C@]12C | 16 µg/mL | > 128 µg/mL | > 128 µg/mL | 6 µg/mL | Non-toxic | > 128 µg/mL | 100 µM | 64 µg/mL (≈ 79.4 µM) | > 1000 µM | 32 µg/mL (≈ 39.7 µM) | 96 µg/mL (≈ 119 µM) | Non-toxic | 16 µg/mL (≈ 19.8 µM) |
| CN(C)[C@@H]1C(O)=C(C(N)=O)C(=O)[C@@]2(O)C(O)=C3C(=O)c4c(O)cccc4[C@@](C)(O)[C@H]3C[C@@H]12 [TETRACYCLINE] |  | 16 µg/mL (≈ 36 µM) | 8 µg/mL (≈ 18 µM) |  |  |  |  |  |  |  |  |  |  |
